The numbers were not newly measured in US12436146B2, “Cell-based assay for quantifying the potency and efficacy of cannabinoids and/or terpenoids, and methods of use thereof” (priority 2017, dated 2025), which cites them from elsewhere.

Data set [1] concerns the target T1, CB1 (Homo sapiens, UniProt P21554).
In data set [2] the target is T2, CB2 (Homo sapiens, UniProt P34972). The settings on record: read-out: CB2 affinity (Ki).
Data set [3] has as its target T1, CB1. The note with it: read-out: CB1 affinity (Ki).
Data set [4] deals with T2, CB2.

T1 sequence (P21554 whole entry): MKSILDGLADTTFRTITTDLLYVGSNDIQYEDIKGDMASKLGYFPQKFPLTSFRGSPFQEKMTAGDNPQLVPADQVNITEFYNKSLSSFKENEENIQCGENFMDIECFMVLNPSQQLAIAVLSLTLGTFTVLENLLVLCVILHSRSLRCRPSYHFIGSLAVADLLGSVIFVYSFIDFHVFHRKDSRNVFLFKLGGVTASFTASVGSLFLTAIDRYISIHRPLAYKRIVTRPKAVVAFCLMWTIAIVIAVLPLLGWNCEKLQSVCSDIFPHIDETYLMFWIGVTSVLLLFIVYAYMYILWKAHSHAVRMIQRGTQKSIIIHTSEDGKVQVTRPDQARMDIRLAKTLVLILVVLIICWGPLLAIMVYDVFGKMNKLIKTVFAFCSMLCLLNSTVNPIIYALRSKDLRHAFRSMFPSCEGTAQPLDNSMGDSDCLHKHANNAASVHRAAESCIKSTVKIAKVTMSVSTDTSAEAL
T2 sequence (P34972 whole entry): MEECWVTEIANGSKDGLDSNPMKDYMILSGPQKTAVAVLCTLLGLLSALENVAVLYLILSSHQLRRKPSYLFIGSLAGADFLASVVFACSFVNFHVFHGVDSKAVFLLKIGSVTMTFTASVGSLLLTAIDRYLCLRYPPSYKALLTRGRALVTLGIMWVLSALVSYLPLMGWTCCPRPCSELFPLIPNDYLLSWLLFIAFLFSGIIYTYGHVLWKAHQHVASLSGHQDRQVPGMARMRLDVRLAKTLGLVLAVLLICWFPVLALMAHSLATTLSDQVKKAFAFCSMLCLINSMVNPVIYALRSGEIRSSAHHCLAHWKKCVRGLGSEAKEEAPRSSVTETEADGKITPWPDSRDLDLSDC

The Ki is the equilibrium dissociation constant of an inhibitor or competing ligand from its target. In the case of `O=C(O[C@@H]1Cc2c(O)cc(O)cc2O[C@@H]1c1cc(O)c(O)c(O)c1)c1cc(O)c(O)c(O)c1` [EGCG], the “Efficacy towards CB1” value on CB1 [1] is “Agonist”. The Ki at CB2 [2] is > 50000 nM; on CB1 [3], 33600 nM.
For `CCCCC/C=C\C/C=C\C/C=C\C/C=C\CCCCOC(CO)CO` [2-Arachidonyl glyceryl ether], the “Efficacy towards CB1” value on CB1 [1] was “Full agonist”. Besides, the “Efficacy towards CB2” value on CB2 [4] is listed as “Full agonist”. Further, the Ki at CB2 [2] is 480 nM; on CB1 [3] it was 21 nM.
`CCCCCn1c(C)c(C(=O)c2cccc3ccccc23)c2ccccc21` [JWH-007]: the “Efficacy towards CB1” value on CB1 [1] was “Agonist”. The “Efficacy towards CB2” value on CB2 [4] is recorded as “Agonist”. The Ki at CB2 [2] is 2.94 nM; at CB1 [3], 9 nM.
`COc1ccc(/C=C/c2cc(OC)cc(=O)o2)cc1` [Yangonin]: at CB2 [2], the Ki is > 10000 nM.
With `CCCCCn1cc(C(=O)C2C(C)(C)C2(C)C)c2ccccc21` [UR-144], the “Efficacy towards CB1” value at CB1 [1] is on record as “Full agonist”. In addition, at CB2 [4], the “Efficacy towards CB2” value is reported as “Full agonist”. Also, the figures for the Ki on CB2 [2] and on CB1 [3] were 1.8 nM and 150 nM, respectively.
Regarding `N#CCCCCn1cc(C(=O)c2cccc3ccccc23)c2ccccc21` [AM-2232], on CB1 [1], the “Efficacy towards CB1” value is listed as “Agonist”. Further, at CB2 [4], the “Efficacy towards CB2” value is recorded as “Agonist”. The Ki at CB2 [2] is 1.48 nM; on CB1 [3] it was 0.28 nM.
On to `CCCCC/C=C\C/C=C\C/C=C\C/C=C\CCCC(=O)NCCc1ccc(O)c(O)c1` [N-Arachidonoyl dopamine], for which the “Efficacy towards CB1” value at CB1 [1] is recorded as “Agonist”.
With `CCCCCn1cc(C(=O)c2cccc3ccccc23)c2ccccc21` [JWH-018], the “Efficacy towards CB1” value on CB1 [1] is listed as “Full agonist”. Further, the “Efficacy towards CB2” value at CB2 [4] is “Full agonist”. In addition, the results for the Ki at CB2 [2] and at CB1 [3] were 2.94 ± 2.65 nM and 9 ± 5 nM, respectively.
With `Cc1c(C(=O)c2cccc3ccccc23)c2ccc([N+](=O)[O-])cc2n1CC1CCCCN1C` (stereo not shown) [AM-1221], the “Efficacy towards CB1” value on CB1 [1] is “Agonist”. Also, the “Efficacy towards CB2” value on CB2 [4] was “Agonist”. The results for the Ki at CB2 [2] and on CB1 [3] were 0.28 nM and 52.3 nM, respectively.
Take `CCCCC/C=C\C/C=C\C/C=C\C/C=C\CCCC(=O)OC(CO)CO` [2-Arachidonoylglycerol]: the “Efficacy towards CB1” value on CB1 [1] was “Full agonist”.
As for `O=C(c1cccc2ccccc12)c1cn(CCCCCF)c2cc([N+](=O)[O-])ccc12` [AM-1235], on CB1 [1], the “Efficacy towards CB1” value was “Agonist”. Besides, the “Efficacy towards CB2” value on CB2 [4] is reported as “Agonist”. The Ki is 20.4 nM on CB2 [2] and 1.5 nM at CB1 [3].
